System: OT-1 CD8+ T cells
Experiment: Adoptive transfer of OT-1 T cells and immunization of C57BL/6 mice, marker expression on splenic OT-1 T cells
Format: in vivo
Conditions: OVA or FT peptide immunization with TLR ligand versus peptide alone; splenocytes up to 14 days; early after T-cell activation
Source text: Vaccine type can affect expression of T-cell checkpoint molecules on activated CD8+ T cells: This Example used an ovalbumin vaccination model. OT-1 cells were adoptively transferred to naïve C57BL/6 mice. The day after transfer, mice were immunized once with (a) DNA encoding ovalbumin, (b) Listeria monocytogenes (Lm) encoding ovalbumin, (c) OVA257-264 peptide (SIINFEKL (SEQ ID NO:1)), (d) SIINFEKL peptide (SEQ ID NO:1) with DNA vector, (e) DNA vector alone, (f) Lm encoding control vector with no antigen, or (g) NS (non-specific) peptide. Splenocytes were collected the day after vaccination for expression of cell surface markers on antigen-specific OT-1 cells. […] LAG-3 expression was not reduced in the presence of Lm co-administered with peptide.
TLR stimulation at the time of T-cell activation reduced expression of PD-1 in vivo: To determine whether TLR stimulation at the time of T-cell activation with vaccination elicited a similar reduction in PD-1 in vivo, OT-1 cells were adoptively transferred to naïve C57BL/6 mice as above, and immunized once with OVA or FT peptide (or non-specific peptide) one day later in the presence or absence of a TLR 1/2, TLR7, or TLR9 ligand. Splenocytes were collected from groups up to 14 days after immunization and evaluated for expression of 4-1BB, PD-1 and LAG-3.
Adoptive transfer and immunization of wild type C57BL/6 (B6) mice: OT-1 splenocytes were harvested and CD8+ T cells were isolated as described above. 2×10^6 OT-1 T cells were adoptively transferred into 6- to 10-week old female B6 mice via intraperitoneal injection. The day following transfer, mice were immunized subcutaneously with 100 μg SIINFEKL peptide (SEQ ID NO:1) in PBS without adjuvant, intradermally with 100 μg plasmid encoding full length secreted chicken egg ovalbumin (pCI-neo-sOVA (psOVA), Addgene plasmid #25098, Cambridge, MA), intraperitoneally with 5×10^6 cfu of a Listeria monocytogenes vector encoding ovalbumin (Lm-OVA, gift of JD Sauer), or vehicle or corresponding wild-type Lm or DNA plasmid vector. TLR agonists were co-injected with the vaccine at the following concentrations: 20 μg/mouse Pam3CSK4, 100 μg/mouse Gardiquimod, 50 μg/mouse ODN 1826, or vehicle. Mice were euthanized at the times indicated. Spleens were collected, processed as described above, and T-cell populations analyzed by flow cytometry. Data collected on different days were normalized using rainbow beads (Spherotech, Lake Forest, IL; RFP-30-5A).

Row | Molecule | PD-1 expression on OT-1 CD8+ T cells in vivo
1 | Pam3CSK4 | significantly reduced
2 | CCNCc1nc2c(N)nc3ccccc3c2n1CC(C)(C)O [Gardiquimod] | significantly reduced
